Reference: article PMC10825075, “Proteomic analysis of horse hair extracts provides no evidence for the existence of a hypoallergenic Curly Horse breed” (Clinical and Translational Allergy, 2024)

Tests used:
Equ c 1.0102 [1] = target: T1, Equ c 1.0102 (Equus caballus, UniProt A0A3Q2HX90); assay: fluorescent probe binding (excitation […] nm, emission […] nm)
T1 construct: mature protein, residues 16-187 (signal peptide removed), C-terminal His6 tag, codon-optimized synthetic cDNA in pET-21d(+), E. coli Rosetta-gami 2(DE3), purified by HisTrap
T1 sequence (A0A3Q2HX90 16-187): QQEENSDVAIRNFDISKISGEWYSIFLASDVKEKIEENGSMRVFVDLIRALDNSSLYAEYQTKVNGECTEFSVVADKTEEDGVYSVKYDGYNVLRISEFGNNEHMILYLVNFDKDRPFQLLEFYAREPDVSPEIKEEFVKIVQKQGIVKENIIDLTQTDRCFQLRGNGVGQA

Equ c 1.0102 [2] = target: T1, Equ c 1.0102; assay: as above; conditions: read-out: dissociation constant
Equ c 1.0102 [3] = target: T1, Equ c 1.0102; assay: competitive displacement of fluorescent probe 1-NPN, 12-point titration, one-site fit; format: binding

Ki (Equ c 1.0102 [3])	SMILES	EC50 (Equ c 1.0102 [1])	Kd (Equ c 1.0102 [2])
	c1ccc(Nc2cccc3ccccc23)cc1 [1-NPN]	5 µM	6.4 µM
1.1 µM	CCCCCCCCCCO [1-decanol]		
0.6 µM	CC(C)CCCC(C)CCO (stereo not shown) [3,7-dimethyl-1-octanol]		
